Key:
[1] = Coagulating activity (coagulation agents for water treatment), graded relative to FLO; parameters: key: +++: higher activity than FLO; ++: equivalent activity of FLO; +: lower activity than FLO; −: no activity observed; conditions: coagulating activity compared with FLO
Text: (§1) More information regarding the detailed description of the invention (e.g. material & methods, experimental results) can be found in international patent application PCT/CH03/00568 which is incorporated by reference.

[2] = Antimicrobial (antibiotic) activity, graded relative to FLO; format: cell-based; parameters: key: +++: higher activity than FLO; ++: equivalent activity of FLO; +: lower activity than FLO; −: no activity observed; conditions: antimicrobial activity compared with FLO
Text: as §1

Sequence	Coag. [1]	antlbt. [2]
RCGQQLRNISPPQRCPSLRQAVQLTHQQQGQ [P2.1, derivative of FLO]	−	
PQRCPSLRQAVQLTHQ [P2ab, derivative of FLO]	++	
PQRCPSLRQAVQLTHQQQRQV [P2GR40, derivative of FLO]	+++	++
SLRQAVQLTHQ [P2b, derivative of FLO]	−	−
AVQLTHQQQGQV [P2c, derivative of FLO]	−	−
GQVGPQQVRQMYRVASNIPST [P3, derivative of FLO]	−	−
QGPGRQPDFQRCGQQLRNISPPQRCPSLRQAVQLTHQQQGQVGPQQRQMYRVASNIPST [Flo, protein called FLO, disclosed in WO 03/008441 A2; coagulation and antimicrobial agent, reference compound]	++	++
PQRCPSLRQAV [P2a, derivative of FLO]	−	−
PQRCPSLRQAVQLTHQQQGQV [P2, derivative of FLO]	++	+
QGPGRQPDFQRCGQQLRNISPP [P1, derivative of FLO]	−	

Reference: US20070099838A1, “Plant-derived peptides harboring water-cleaning and antimicrobial activities” (OPTIMA ENVIRONNEMENT S.A., priority 2003, published 2007)
